Measured values taken from US11534437B2, “Methods of treating radiation induced gastrointestinal syndrome (RIGS) and related disease states using compound 512” (BCN Biosciences L.L.C., priority 2017, dated 2022).

Tests used:
plasma cytokines = assay: Plasma cytokine levels in rodents after lower thoracic radiation; format: in vivo; settings: LTI + 512, 5 mg/kg 512
Description: Ctl, control with no treatment. LTI, lower thoracic radiation, LTI+512, radiation, and 512. The cytokine phenotype is anti-inflammatory where IL-6 is an anti-inflammatory cytokine required for controlling local or systemic acute inflammatory responses and IL-1 is pro inflammatory and so forth.

[1] = test system: HEK293 cells having TCF/LEF luciferase reporter construct; assay: TCF/LEF luciferase reporter assay for canonical WNT activity; format: cell-based; settings: LiCl 10 mM, 24 hr
Description: To determine the canonical WNT activity in 512 (28.78 μM) HEK293 cells having TCF/LEF luciferase reporter construct were treated with 512 or vehicle control. LiCl (10 mM) treatment was used as positive control for luciferase activity. Luciferase activity was determined 24 hr after using Dual-Luciferase® Reporter Assay System (Promega) as per manufacturer's protocol. HEK293 cells having FOPFLASH construct were used as negative control. […] WNT-β catenin signaling is well known to promote the self renewal and differentiation of LGR5+ epithelial (lung, oral, intestinal) stem cells.

Structure (SMILES)	plasma IL-6 level (plasma cytokines; Ctl 7, LTI 15)	plasma KC level (plasma cytokines; Ctl 10, LTI 210)	plasma IL-23 level (plasma cytokines; Ctl 13, LTI 79)	plasma MCP-1 level (plasma cytokines; Ctl 17, LTI 103)	plasma MIP-1b level (plasma cytokines; Ctl 25, LTI 88)	plasma IL-1b level (plasma cytokines; Ctl 32, LTI 50)	luciferase activity (positive control) [1]
O=[N+]([O-])c1ccc(S(=O)(=O)N2CCN(c3ccccc3)CC2)cc1 [Compound 512, 1-[(4-nitrobenezene)sulfonyl]-4-phenyl piperazine]	88	245	23	77	13	7	
[Cl-].[Li+] [LiCl]							significant increase in Luciferase activity
